In US12576169B2, “Silicon-fluoride acceptor substituted radiopharmaceuticals and precursors thereof” (Technische Universität München, priority 2019, dated 2026):
Read-outs that look alike come from different tables or passages of the source. *1 amine or outer side, *2 acyl side, *3 side chain or, on linkers, in order; H or OH if unused. Where a SMILES comes first, the peptide text is derived from it. Side-chain parts run from the residue outwards. [ ]: non-standard residue; d: D form. The star is where a group is joined. X1 = O=C(O)CC[C@H](NC(=O)N[C@@H](CCC(=O)N[C@H](CCCN*)C(=O)O)C(=O)O)C(=O)O; Benzoyl(4-SiFtBu2) = CC(C)(C)[Si](F)(c1ccc(C(=O)*)cc1)C(C)(C)C; Suc = O=C(CCC(=O)[*:2])[*:1]; dDap = NC[C@@H](N)C(=O)O

Experiments:
[1] = target: T1, human serum albumin (HSA) (Homo sapiens, UniProt P02768); experiment: Binding to HSA on a Chiralpak HSA column; type: in vitro ADME; conditions: calibration with nine reference substances
T1 construct: purchased H13H-2433
T1 sequence (P02768 25-609): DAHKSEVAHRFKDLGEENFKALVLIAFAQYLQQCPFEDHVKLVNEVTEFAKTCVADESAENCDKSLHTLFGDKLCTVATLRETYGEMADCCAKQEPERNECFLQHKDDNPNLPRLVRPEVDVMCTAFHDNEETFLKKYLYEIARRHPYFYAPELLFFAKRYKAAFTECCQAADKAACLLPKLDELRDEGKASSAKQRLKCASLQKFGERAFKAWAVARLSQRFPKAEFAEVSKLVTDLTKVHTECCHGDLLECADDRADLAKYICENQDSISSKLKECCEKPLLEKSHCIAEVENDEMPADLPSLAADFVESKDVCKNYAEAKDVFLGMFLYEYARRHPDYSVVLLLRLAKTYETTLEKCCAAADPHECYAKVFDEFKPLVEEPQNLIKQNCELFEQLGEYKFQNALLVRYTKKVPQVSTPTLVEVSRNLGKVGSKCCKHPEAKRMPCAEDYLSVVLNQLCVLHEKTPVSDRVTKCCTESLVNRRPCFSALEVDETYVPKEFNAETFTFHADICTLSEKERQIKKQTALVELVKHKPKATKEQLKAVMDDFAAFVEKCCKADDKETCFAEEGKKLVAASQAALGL
Procedure: For the determination of human serum albumin (HSA) binding, a Chiralpak HSA column (50×3 mm, 5 μm, H13H-2433) was used at a constant flow rate of 0.5 mL/min. The mobile phase composed of a 50 mM NH4OAc solution in water with pH=7 (solvent C) and isopropanol (solvent D) was freshly prepared for each experiment and used only once. The reference substances (Table 1) as well as the analyzed SiFA-PSMA ligands were dissolved in a mixture of solvent C/solvent D (1:1, v/v, 0.5 mg/mL) and eluted from the HSA column (0-3 min: 100% C, 3-20 min: 20% D in C, λ=254 nm). The column was kept at rt and each run was stopped after detection of the signal to reduce the acquisition time. The nine reference substances display an HSA binding range of 13% to 99% and were injected consecutively in order to establish a sigmoidal calibration curve with the software OriginPro 2018b (FIG. 1).

[2] = n-Octanol-PBS partition coefficient (logD7.4); type: physicochemical; conditions: 18F-labeled ligand; n-octanol/PBS pH=7.4; mean ± SD (n = 5)
Procedure: Approx. 0.5 MBq of the ^18F-labeled SiFA-PSMA ligand were added into a test tube containing n-octanol (500 μL) and PBS (500 μL, pH=7.4). After vigorously shaking the two-phase mixture for 3 min at rt, the test tube was centrifuged at 9.000 rpm for 5 min to achieve quantitative phase separation. Finally, 150 μL of each layer were pipetted off and measured for activity using a gamma counter. After repeating the experiment for at least five times, the n-octanol-PBS partition coefficient log D7.4 was calculated according to following formula.

PSMA = PSMA (Homo sapiens, UniProt Q04609); experiment: IC50 determination: PSMA binding affinity, competition with [125I]XII on LNCaP cells
Sequence of PSMA (Q04609 whole entry): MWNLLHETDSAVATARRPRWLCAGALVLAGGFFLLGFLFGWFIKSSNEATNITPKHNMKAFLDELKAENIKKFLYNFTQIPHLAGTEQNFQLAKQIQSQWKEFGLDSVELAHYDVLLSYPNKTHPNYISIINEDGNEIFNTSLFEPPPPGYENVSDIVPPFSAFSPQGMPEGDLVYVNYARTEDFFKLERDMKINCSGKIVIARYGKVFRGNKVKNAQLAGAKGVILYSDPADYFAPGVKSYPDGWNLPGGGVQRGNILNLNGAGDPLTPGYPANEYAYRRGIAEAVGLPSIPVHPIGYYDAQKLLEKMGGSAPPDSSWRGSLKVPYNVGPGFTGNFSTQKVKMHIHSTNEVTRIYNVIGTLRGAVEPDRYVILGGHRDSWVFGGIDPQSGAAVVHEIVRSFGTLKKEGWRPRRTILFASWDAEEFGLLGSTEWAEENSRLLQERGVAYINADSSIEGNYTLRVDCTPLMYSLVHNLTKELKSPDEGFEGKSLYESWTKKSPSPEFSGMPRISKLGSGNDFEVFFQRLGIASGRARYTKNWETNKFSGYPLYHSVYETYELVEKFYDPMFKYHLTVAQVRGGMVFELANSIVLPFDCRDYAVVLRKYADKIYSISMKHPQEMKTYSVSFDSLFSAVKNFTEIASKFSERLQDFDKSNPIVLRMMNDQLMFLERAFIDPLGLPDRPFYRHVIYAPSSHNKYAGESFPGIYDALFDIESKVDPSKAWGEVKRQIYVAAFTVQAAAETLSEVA
Procedure: LNCaP cells were grown in Dulbecco's Modified Eagle Medium/Nutrient Mixture F-12 (DMEM/F-12, add. 10% fetal calf serum (FCS), v/v) and maintained at 37° C. in a humidified 5% CO2 atmosphere. […] After removal of the culture medium, LNCaP cells were treated with HBSS (add. 1% BSA, v/v, 4° C., 500 μL) and subsequently left 15 min on ice for equilibration in HBSS (add. 1% BSA, v/v, 4° C., 200 μL). […] For the control series, HBSS (add. 1% BSA, v/v, 25 μL) was used instead of the SiFA-PSMA ligand solution. Each concentration and the control were prepared in triplicate. After 1 h incubation on ice, the assay medium was removed and cells were washed with HBSS (200 μL, 4° C.). […] NaOH (200 μL) for at least 10 min and the resulting cell lysate was removed. The wells were treated again with 1 M aq. […] The experiment was repeated for at least three times and the IC50 value calculated using the GraphPad PRISM 8.0.2 software (Graphpad Software Inc., La Jolla, United States).

LNCaP cells = experiment: Internalization of 18F-labeled ligands into LNCaP cells; type: cell-based, human; conditions: internalized activity at 1 h in % of reference [125I]XII; c = 0.5 nM; LNCaP cells (125.000 cells/well); 37° C., DMEM/F-12 add. 5% BSA; corrected for non-specific binding (10 μm PMPA); mean ± SD (n = 3)
Procedure: LNCaP cells were grown in DMEM/F-12 (add. 10% FCS, v/v) and maintained at 37° C. in a humidified 5% CO2 atmosphere. […] Subsequent to the removal of the culture medium, cells were washed with DMEM-F12 (add. 5% BSA, v/v, 500 μL) and left to equilibrate in DMEM-F12 (add. 5% BSA, v/v, 200 μL) at 37° C. for 15 min. Each well was treated with either DMEM-F12 (add. 5% BSA, v/v, 25 μL) or a 2-(phosphonomethyl)-pentandioic acid (PMPA) solution (100 μM in PBS, 25 μL) for blockade. Afterwards, the ^18F-labeled SiFA-PSMA ligand (5 nM in PBS, 25 μL) was added and the cells were incubated for 1 h at 37° C. The experiment was terminated by placing the 24-well plate on ice for 3 min and removal of the assay medium. Each well was rinsed with HBSS (4° C., 250 μL) and the fractions were combined with the previous assay medium, representing the amount of unbound radioligand. For removal of surface bound activity, LNCaP cells were incubated with PMPA solution (10 μM in PBS, 4° C., 250 μL) for 5 min and rinsed again with PBS (250 μL, 4° C.). The internalized activity was determined by incubation of LNCaP cells with 1 M aq. NaOH (250 μL) for at least 10 min and combination with the fraction of a subsequent wash step with 1 M aq. NaOH (200 μL). Each experiment (control and blockade) was performed in triplicate. […] All internalization studies were accompanied by reference studies using the reference compound XII (2 nM in HBSS add. 1% BSA, v/v), which were performed analogously. Data were corrected for non-specific internalization and normalized to the specific-internalization observed for the radioiodinated reference compound.

[3] = LNCaP cells (150.000 cells/well), reference [125I]XII c = 0.2 nM, 1 h, 4° C., HBSS add. 1% BSA, mean ± SD (n = 3)

Row | SMILES | Binding to HSA [1] [%] | logD7.4 [2] | IC50 (PSMA) [nM] | Internalization (LNCaP cells) [%] | IC50 (PSMA; [3]) [nM]
1 | CC(C)(C)[Si](F)(c1ccc(C(=O)NC[C@@H](NC(=O)[C@H](N)CNC(=O)CC[C@H](NC(=O)N[C@@H](CCC(=O)O)C(=O)O)C(=O)O)C(=O)N[C@H](CCCCNC(=O)CCC(=O)NCCC[C@@H](NC(=O)CC[C@H](NC(=O)N[C@@H](CCC(=O)O)C(=O)O)C(=O)O)C(=O)O)C(=O)O)cc1)C(C)(C)C [SiFA-PSMA ligand 02 a] | ≥98.9 | −3.65 ± 0.09 | 10.2 ± 1.2 | 231.60 ± 14.21 | 
2 | CC(C)(C)[Si](F)(c1ccc(C(=O)N[C@H](CC(=O)N[C@H](CCCCNC(=O)CCC(=O)NCCC[C@@H](NC(=O)CC[C@H](NC(=O)N[C@@H](CCC(=O)O)C(=O)O)C(=O)O)C(=O)O)C(=O)O)C(=O)N[C@H](CCCCNC(=O)CCC(=O)NCCC[C@@H](NC(=O)CC[C@H](NC(=O)N[C@@H](CCC(=O)O)C(=O)O)C(=O)O)C(=O)O)C(=O)O)cc1)C(C)(C)C [SiFA-PSMA ligand 06] | ≥98.9 | −3.77 ± 0.04 | 7.4 ± 1.9 | 270.03 ± 16.10 | 
3 | CC(C)(C)[Si](F)(c1ccc(C(=O)NC[C@@H](NC(=O)[C@@H](CC(=O)O)NC(=O)CC[C@H](NC(=O)N[C@@H](CCC(=O)O)C(=O)O)C(=O)O)C(=O)N[C@H](CCCCNC(=O)CCC(=O)NCCC[C@@H](NC(=O)CC[C@H](NC(=O)N[C@@H](CCC(=O)O)C(=O)O)C(=O)O)C(=O)O)C(=O)O)cc1)C(C)(C)C [SiFA-PSMA ligand 01 a] | ≥99.0 | −4.02 ± 0.04 |  | 162.54 ± 7.08 | 7.8 ± 0.8
4 | CC(C)(C)[Si](F)(c1ccc(C(=O)NC[C@@H](NC(=O)[C@@H](CN)NC(=O)[C@@H](CCC(=O)O)NC(=O)[C@H](N)CCC(=O)O)C(=O)N[C@H](CCCCNC(=O)CCC(=O)NCCC[C@@H](NC(=O)CC[C@H](NC(=O)N[C@@H](CCC(=O)O)C(=O)O)C(=O)O)C(=O)O)C(=O)O)cc1)C(C)(C)C [SiFA-PSMA ligand 03 d] (H-[dE][dE][dDap][dDap](Benzoyl(4-SiFtBu2))[dK]([Suc-X1])-OH) | 97.2 | −3.42 ± 0.05 |  | 171.82 ± 9.57 | 9.1 ± 0.8
5 | CC(C)(C)[Si](F)(c1ccc(C(=O)NC[C@@H](NC(=O)[C@@H](CC(=O)O)NC(=O)[C@@H](CCC(=O)O)NC(=O)[C@H](N)CCC(=O)O)C(=O)N[C@H](CCCCNC(=O)CCC(=O)NCCC[C@@H](NC(=O)CC[C@H](NC(=O)N[C@@H](CCC(=O)O)C(=O)O)C(=O)O)C(=O)O)C(=O)O)cc1)C(C)(C)C [SiFA-PSMA ligand 03 a] (H-[dE][dE][dD][dDap](Benzoyl(4-SiFtBu2))[dK]([Suc-X1])-OH) | 98.8 | −3.80 ± 0.06 |  | 135.74 ± 6.70 | 9.3 ± 1.7
6 | CC(C)(C)[Si](F)(c1ccc(C(=O)NC[C@@H](NC(=O)[C@@H](CCCN)NC(=O)CC[C@H](NC(=O)N[C@@H](CCC(=O)O)C(=O)O)C(=O)O)C(=O)N[C@H](CCCCNC(=O)CCC(=O)NCCC[C@@H](NC(=O)CC[C@H](NC(=O)N[C@@H](CCC(=O)O)C(=O)O)C(=O)O)C(=O)O)C(=O)O)cc1)C(C)(C)C [SiFA-PSMA ligand 01 f] | 98.9 | −3.65 ± 0.09 |  | 123.13 ± 2.14 | 8.3 ± 1.5
7 | CC(C)(C)[Si](F)(c1ccc(C(=O)N[C@H](CC(=O)N[C@H](CC(=O)NCCC[C@@H](NC(=O)c2cc(C(=O)O)cc(C(=O)O)c2)C(=O)NCCCC[C@@H](NC(=O)CC[C@H](NC(=O)N[C@@H](CCC(=O)O)C(=O)O)C(=O)O)C(=O)O)C(=O)O)C(=O)N[C@H](CC(=O)NCCC[C@@H](NC(=O)c2cc(C(=O)O)cc(C(=O)O)c2)C(=O)NCCCC[C@@H](NC(=O)CC[C@H](NC(=O)N[C@@H](CCC(=O)O)C(=O)O)C(=O)O)C(=O)O)C(=O)O)cc1)C(C)(C)C [SiFA-PSMA ligand 07] |  | −3.45 ± 0.01 | 5.5 ± 0.6 | 311.75 ± 7.30 | 
